Experimental data taken from patent US20100036122A1, “CLEAVAGE AGENT SELECTIVELY ACTING ON SOLUBLE ASSEMBLY OF AMYLOIDOGENIC PEPTIDE OR PROTEIN” (priority 2006, published 2010).
Entries after “also recorded” stand apart in the source; their conditions may differ.

Experiments:
Format in all cases: biochemical
[1] = biological target: T1, amylin (Am; human islet amyloid polypeptide) (Homo sapiens, UniProt P10997); experiment: Cleavage of oligomers of amylin by cleavage agent (MALDI-TOF MS, cleavage yield); conditions: for cleavage of Am (MALDI-TOF mass spectrum of HPLC-purified products) / cleavage products of Am (MALDI-TOF MS): cleavage agent 0.38-7.1 μM (figure legends), pH 7.50, 36 hours
T1 construct: Am is a cyclic oligopeptide consisting of 37 amino acid residues
T1 sequence (P10997 34-70 limits assumed): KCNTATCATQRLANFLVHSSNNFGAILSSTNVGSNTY
Method: (§1) The activity of each cleavage agent was tested at 37° C. and pH 7.50 (0.050 M phosphoric acid) in Eppendorf tubes unless indicated otherwise in the Examples.
MALDI-TOF mass spectrum of the products purified with HPLC after incubating Am (4.0 μM) with cleavage agent A is illustrated in FIG. 12. In this Example and hereafter, MALDI-TOF mass spectra of cleavage products for Am were taken after purification with HPLC by the method described below.
Unless specifically described in the Examples, cleavage reaction of Am was initiated by adding Am to the solution containing the cleavage agent, and the cleavage yield was estimated through the following process. The product solution obtained from the cleavage reaction was passed through the membrane (cut-off MW=10000) to remove Am aggregates, and then the cleavage product was separated by HPLC. The total amount of the cleavage product was quantified. The cleavage product was converted to amino acids by alkaline hydrolysis, and the total amount of amino acids was estimated by using fluorescamine to determine the amount of the cleavage product. The cleavage yield was calculated by comparing the amount of cleavage product with that of the initial amount of Am.
The cleavage yields measured after reacting Am (4.0 μM) with various concentrations of cleavage agent A at 37° C. and pH 7.50 for 36 hours are illustrated in FIG. 13. The cleavage yields of Am in the Examples are the mean value measured by using 4[…]6 different reaction mixtures. The relative standard deviation of each cleavage yield is 5-15%.

Aβ42 = Aβ42 (Homo sapiens, UniProt P05067); experiment: Cleavage of oligomers of Aβ42 by cleavage agent (MALDI-TOF MS, cleavage yield); conditions: for cleavage of Aβ42 (MALDI-TOF mass spectrum): cleavage agent 0.50-1.0 μM, pH 7.50, 36 hours
Method: as §1
(§2) To generate the monomeric form of Aβ40 or Aβ42 in the early reaction stage, Aβ40 or Aβ42 was treated with NaOH prior to exposure to the pH 7.50 reaction medium (Fezoui, Y.; Hartley, D. M.; Harper, J. D.; Khurana, R.; Walsh, D. M.; Condron, M. M.; Selkoe, D. J.; Lansbury, P. T. Jr.; Fink, A. L.; Teplow, D. B. Amyloid 2000, 7, 166-178). The results for measurement of the fraction of Aβ40 (◯) or Aβ42 ([…]) (initial concentration: 4.0 μM) passing the membrane with cut-off MW of 10000 after incubation at pH 7.50 and 37° C. for various periods of self-assembly are illustrated in FIG. 5. According to the results, most (>80%) of Aβ42 (MW 4514) passes the filter immediately after exposure to the pH 7.50 medium. During the filtration through the membrane which takes about 10 minutes, large oligomers which cannot pass the membrane may have been generated. Therefore, it appears that most of the Aβ42 passed the membrane.
(§3) Unless specifically described in the Examples, cleavage reaction was initiated by adding Aβ40 or Aβ42 to the solution containing the cleavage agent, and the cleavage yield was estimated through the following process.
(§4) A product solution formed by the cleavage reaction was passed through the membrane with a cut-off MW of 10000 to remove aggregates of Aβ40 or Aβ42. Thereafter, the cleavage products were separated by HPLC, and the total amount of the cleavage products was estimated. The cleavage product was degraded to amino acids by alkaline hydrolysis, and then, the total amount of amino acids was estimated with fluorescamine to determine the total amount of the cleavage product. The cleavage yield was calculated by comparing the amount of the cleavage product with the initially added amount of the Aβ40 or Aβ42.
(§5) The cleavage yield measured by incubating Aβ40 or Aβ42 (4.0 μM) with various concentrations of cleavage agent A at pH 7.50 and 37° C. for 36 hours is illustrated in FIG. 8. The cleavage yields of Aβ40 or Aβ42 in the Examples are the mean value measured by using 4˜6 different reaction mixtures. The relative standard deviation (% RSD) of each cleavage yield is 5-15%.

α-synuclein (Syn) = biological target: T2, α-synuclein (Syn) (Homo sapiens, UniProt P37840, M5L); experiment: Cleavage of oligomer of α-synuclein by cleavage agent (cleavage yield); conditions: Syn 70 μM, pH 7.50, 37° C.; for cleavage yields of Syn: various concentrations of cleavage agent, 3 days
T2 construct: α-synuclein (Syn) is a protein consisting of 140 amino acids; histidine tag (LEHHHHHH) (C); made in house
Method: as §1
In the Examples, the slightly modified derivatives of α-synuclein (Syn) were used as a substrate to obtain α-synuclein (Syn) by gene recombination. To facilitate purification by the nickel chelate method, histidine tag (LEHHHHHH) was adhered to C-terminus. To avoid interference in the transcription, leucine instead of methionine was incorporated as the 5th amino acid residue.
Unless the context clearly indicates otherwise, Syn cleavage was initiated by adding Syn to the solution of the cleavage agent. The cleavage yield was calculated according to the following method.
A product solution formed by the cleavage reaction was passed through the membrane with the cut-off MW of 10000 to remove Syn and its assemblies. Then, the cleavage products were separated by HPLC, and the total amount of the cleavage products was estimated. The cleavage product was degraded to amino acids through alkaline hydrolysis. The total amount of the amino acids was then estimated with fluorescamine to quantify the total amount of the cleavage product. The cleavage yield was calculated by comparing the amount of the cleavage product with the initially added amount of Syn.
The cleavage yields measured by incubating Syn (70 μM) with various concentrations of cleavage agent A at pH 7.50 and 37° C. for 3 days are illustrated in FIG. 15. The cleavage yields in the Examples are the mean value measured by using 4˜6 different reaction solutions. Since the MW of Syn used in the Examples is about 15000, some of the protein fragments formed by the cleavage of Syn might have been too large to pass through the membrane with cut-off MW of 10000.

scrambled Aβ42 = experiment: Reaction with control peptides: scrambled Aβ42; conditions: scrambled Aβ42 4.0 μM, cleavage agent 3.0 μM, pH 7.50, 37° C., 36 hours
Method: The following control experiment was performed on cleavage agent A. The peptides or proteins used in the control experiment are not amyloidogenic. […] Two kinds of scrambled Aβ42, having the same 42 amino acids as Aβ42 in a scrambled sequence ([…], […]) (4.0 μM), were not cleaved by incubation with cleavage agent A (3.0 μM) at pH 7.50 and 37° C. for 36 hours.

[2] = system: horse heart myoglobin, bovine serum γ-globulin, bovine serum albumin, human serum albumin, egg white lysozyme, egg white ovalbumin, bovine pancreas insulin; experiment: Reaction with control proteins (not amyloidogenic); conditions: each protein 2-7 μM, cleavage agent 5.0 μM, pH 7.50, 37° C., 36 hours
Aβ40 = Aβ40 (Homo sapiens, UniProt P05067); experiment: Cleavage of oligomers of Aβ40 by cleavage agent (MALDI-TOF MS, cleavage yield); conditions: for cleavage of Aβ40 (MALDI-TOF mass spectrum): pH 7.50, 36 hours
Method: as §1, §2, §3, §4, §5

[3] = Am 4.0 μM, cleavage agent 1.0 μM, 36 hours, 37° C., pH 7.50
[4] = concluded from preincubation and filtration experiments
[5] = Aβ42 4.0 μM, pH 7.50, 37° C., 36 hours
[6] = Aβ40 4.0 μM, cleavage agent 3.0 μM, 37° C.
[7] = Aβ42 4.0 μM, cleavage agent 3.0 μM, 36 hours, 37° C., pH 7.50
[8] = Aβ40 4.0 μM, cleavage agent 3.0 μM, 36 hours, 37° C., pH 7.50

Aβ42, sequence (P05067 672-713 limits assumed): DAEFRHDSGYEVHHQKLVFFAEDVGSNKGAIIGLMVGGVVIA
Aβ40, sequence (P05067 672-711 limits assumed): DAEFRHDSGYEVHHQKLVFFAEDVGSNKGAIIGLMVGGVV

Row | Molecule | cleavage of Am (MALDI-TOF mass spectrum of HPLC-purified products) ([1]; Am 4.0 μM, 37° C.) | cleavage products of Am (MALDI-TOF MS) ([1]; Am 4.0 μM, 37° C.) | cleavage of Aβ42 (MALDI-TOF mass spectrum) (Aβ42; Aβ42 4.0 μM, 37° C.) | concentration of cleavage agent at which cleavage reaction was detected (Aβ42; [5]) [nM] | plateau value of the yield for cleavage of Aβ42 at high concentration of the cleavage agent (Aβ42; [5]) | cleavage yields of Syn (α-synuclein (Syn)) | cleavage of two kinds of scrambled Aβ42 (control) (scrambled Aβ42) | cleavage of non-amyloidogenic control proteins [2] | cleavage of Aβ40 (MALDI-TOF mass spectrum) (Aβ40; [6]) | other results
1 | CC(Nc1nc(NCc2ccc(Cl)cc2)nc(OCCN(C)c2ccc(-c3nc4ccccc4s3)cc2)n1)C(=O)NCCCN1CCNCCNCCNCC1.O.O.[Co+3] (centres unmarked) [cleavage agent B] | cleaved | Am20-37, Am19-37 and Am17-37 | cleaved | 30 to 50 | ~17% | fairly large | the same as those obtained in Example 1 | the same as those obtained in Example 1 | cleaved | cleavage yield against reaction time ([1]; Am 4.0 μM, cleavage agent 1.0 μM, 37° C., pH 7.50): does not increase even if the reaction period is increase beyond 36 hours; amounts of cleavage products after preincubation of Am for 6 hours compared with no preincubation [1, 3]: not much smaller; cleavage of Am after preincubation of Am for 36 hours or longer [1, 3]: little cleavage reaction occurred; assembly species of Am cleaved (selectivity) [1, 4]: oligomers of Am instead of the monomer, protofibrils, and fibrils of Am are cleaved; plateau value of the yield for cleavage of Aβ40 at high concentration of the cleavage agent (Aβ40; Aβ40 4.0 μM, pH 7.50, 37° C., 36 hours): about 12%
2 | CCCCNc1nc(NCCCN2CCNCCNCCNCC2)nc(OCCN(C)c2ccc(-c3nc4ccccc4s3)cc2)n1.O.O.[Co+3] [cleavage agent E] | cleaved | Am17-37, Am16-37 and Am13-37 | – | – | – | – | the same as those obtained in Example 1 | the same as those obtained in Example 1 | – | –
3 | CCCCNc1nc(NCCCN2CCNCCNCCNCC2)nc(NCc2ccc(-c3nc4ccccc4o3)cc2)n1.O.O.[Co+3] [cleavage agent A] | cleaved | Am20-37 and Am19-37 | cleaved | 100 | about 30% | fairly large | not cleaved | cleavage reaction was not detected | cleaved | cleavage of Aβ42 after preincubation of Aβ42 for 24 hours (Aβ42; [7]): little cleavage was observed; cleavage yield after preincubation of Aβ42 for 3-6 hours compared with no preincubation (Aβ42; [7]): not much smaller; assembly species of Aβ42 cleaved (selectivity) (Aβ42; [4]): the oligomer is cleaved by the cleavage agent A and not the Aβ42 monomer, protofibril, or fibril; cleavage of Aβ40 after preincubation of Aβ40 for 24 hours (Aβ40; [8]): considerable peptide cleavage; effect of preincubation of Aβ40 for periods longer than 24 hours on cleavage yield (Aβ40; [8]): reduces the cleavage yield; yield for cleavage of Aβ40 after preincubation for 3-18 hours (Aβ40; [8]): does not decrease considerably; assembly species of Aβ40 cleaved (selectivity) (Aβ40; [4]): protofibrils or fibrils of Aβ40 are not cleaved
4 | Cc1ccccc1CNc1nc(NCCC(=O)NCCCN2CCNCCNCCNCC2)nc(OCCN(C)c2ccc(-c3nc4ccccc4s3)cc2)n1.O.O.[Co+3] [cleavage agent D] | cleaved | Am20-37 and Am19-37 | cleaved | 50 to 100 | about 12% | – | the same as those obtained in Example 1 | the same as those obtained in Example 1 | – | cleavage of Aβ40 (MALDI-TOF MS data) (Aβ40; Aβ40 4.0 μM, cleavage agent 0.1-10 μM, pH 7.50, 37° C., 36 hours): did not reveal any evidence of cleavage
5 | CC(C)CC(Nc1nc(OCCN(C)c2ccc(-c3nc4ccccc4s3)cc2)nc(N2CCCCC2)n1)C(=O)NCCCN1CCNCCNCCNCC1.O.O.[Co+3] (centres unmarked) [cleavage agent F] | cleaved | Am19-37 and Am17-37; also recorded: Am20-37, Am17-37 and Am14-37 | – | – | – | – | the same as those obtained in Example 1 | the same as those obtained in Example 1 | – | –
6 | Co^III complex of cyclen [reference compound] | – | – | – | – | – | – | – | – | – | cleavage of Am by complex lacking the recognition site ([1]; complex 20 μM, Am 4.0 μM, pH 7.50, 37° C., 36 hours): No peptide cleavage was observed; cleavage of Aβ42 by complex lacking the recognition site (Aβ42; complex 20 μM, Aβ42 4.0 μM, pH 7.50, 37° C., 36 hours): No peptide cleavage was observed; cleavage of Syn by complex lacking the recognition site (α-synuclein (Syn); complex 20 μM, 36 hours): No peptide cleavage was observed; cleavage of Aβ40 by complex lacking the recognition site (Aβ40; complex 20 μM, Aβ40 4.0 μM, pH 7.50, 37° C., 36 hours): No peptide cleavage was observed
